This is an account of results in patent US20200113902A1, “COMPOSITIONS AND METHODS FOR TREATING CANCERS WITH COVALENT INHIBITORS OF CYCLIN-DEPENDENT KINASE 7 (CDK7)” (Syros Pharmaceuticals, Inc., priority 2017, published 2020).

The subject of experiment [1] is MCL1 protein in MDAMB468 cells. Kind of experiment: Western blot of BCL2 family proteins, MDAMB468. The experiment is classed as cell-based, human. The note with it: 50 nM or 100 nM, 24 hours. The procedure: Cytotoxic cancer cell lines HCC70 and TOV21G, and cytostatic cancer cell lines T47D and COV318 were seeded in wells of a six-well dish at a density of 1×10^6 cells/well and allowed to adhere overnight. Cells were then treated with 50 nM of Compound 1 for 16 or 24 hours, or with DMSO (0 hours) representing a negative control. Cells were harvested and placed on ice, and resuspended in RIPA lysis buffer supplemented with protease and phosphatase inhibitors. Clarified lysates prepared with 4×LSD running buffer and boiled at 95° C. for 5 minutes. Equivalent amounts of sample (10 μg total protein) were run on a 4-12% Bis-Tris gel and transferred to a PDVF membrane for Western blotting using standard Western blotting protocols. Membranes were blocked with Licor TBS blocking buffer then probed with antibodies for BCL-XL, BCL-2, MCL1, BID, and GAPDH visualized using and Odyssey imager (FIGS. 23A and 23D).
In a similar experiment, TNBC breast cancer cell lines HCC70, MDAMB468, MDAMB453 and CAL-120 were grown as described above and treated with DMSO, 50 nM Compound 1 or 100 nM Compound 1 for 24 hours. Protein samples were prepared as described above for Western blotting using antibodies specific for the indicated proteins in FIG. 29A. […]
On the technique in general: A western blot detects proteins with antibodies after separation by electrophoresis.

The test system of experiment [2] is homologous recombination deficiency / carboplatin sensitivity genes in OvCar3 cells. Kind of experiment: Nanostring PanCancer Pathways mRNA, OvCar3. The experiment is classed as cell-based. The note with it: 50 nM, 16 hours. The procedure:
Ovarian Cell lines OvCar3, TOV21G, A2780 and COV318 were plated at 500,000 cells/well in a 6-well plate the day before treatment. The next day the cells were treated with vehicle or 50 nM Compound 1 for 0, 6, or 16 hours after which cells were harvested and total RNA collected using RNeasy mini kit (Qiagen). Changes in mRNA between samples were analyzed with Nanostring™ PanCancer Pathways Panels specifically analyzing genes related to homologous recombination deficiency and carboplatin sensitivity (ie. BRCA1, BRCA2, Rad51, ATM, ATR, MSH2, MSH6). Nanostring signal intensities were first normalized to housekeeping genes across all cell lines, and then normalized to the 0 hour timepoint within a cell line.

The subject of experiment [3] is gene expression in HCC70 cells. Kind of experiment: Gene expression profiling via RNA-seq (DESeq2, linear model), HCC70. The experiment is classed as cell-based. To be noted: four hours, JQ1 125 nM, Compound 1 25 nM. The method, then: In addition, we compared the ability of JQ1 alone, Compound 1 alone, and a combination of JQ1 and Compound 1 to modify expression of various genes in two breast cancer cell lines. Two triple-negative breast cancer cell lines (HCC70 and MDA-MB468) were tested. The cell lines were treated with JQ1, Compound 1, the JQ1/Compound 1 combination, or DMSO for four hours, after which gene expression profiling via RNA-seq was performed. JQ1 was administered to the cells at a 125 nM final concentration in both single agent and combination experiments. Compound 1 was administered to the cells at a 25 nM final concentration in both single agent and combination experiments. Each experiment was performed in triplicate. One replicate of MDA-MB-468 treated with single-agent JQ1 was excluded from further analysis due to quality.
We employed DESeq2 (Love et al., Genome Biology, 15(12):550, 2014) to identify changes in gene expression due to the JQ1, Compound 1, and JQ1-Compound 1 combination treatment compared to the control DMSO condition based on the RNA-seq data. Genes resulting in a p-value below 0.01 and an absolute logFoldChange above 0.5 were considered to be differentially expressed. […] The same is true for 1459 of 2414 genes in MDA-MB468.
To identify the genes whose expression is impacted synergistically by the drug combination, we modeled the effect of each drug treatment on expression using a linear model. The expression of each gene after the combination treatment can be thought of as the combined impact of Compound 1, JQ1, and any synergistic interaction between the drug treatments on baseline gene expression. A linear model used to describe this relationship could therefore be represented as:
Gene Expression after combination treatment=Baseline Expression+Compound 1 effect+JQ1 effect+Combination effect (Synergistic Impact)
By fitting the expression data for each gene using this model, we were able to evaluate the effect of each treatment, and identify cases where a synergistic interaction between Compound 1 and JQ1 impacts final gene expression. After fitting the linear model to each gene, the weight and p-value of each term can be evaluated. The combination term's weight signifies the mean change resulting from a synergetic impact on expression, with a negative weight indicating synergistic downregulation. Its associated p-value represents the probability that the combination term is not relevant to final gene expression. Using this approach, we identified 1806 genes in HCC70 and 2205 genes in MDA-MB468 whose expression change in the combination treatment was synergistic and whose associated p-value was less than a threshold cutoff of 0.01. The expression of these synergistic genes could not be explained by an additive effect of Compound 1 and JQ1 alone.

Each structure is given as a SMILES string.

In the case of `CN(C)C/C=C/C(=O)Nc1ccc(C(=O)N[C@@]2(C)CCC[C@@H](Nc3ncc(Cl)c(-c4c[nH]c5ccccc45)n3)C2)nc1` [Compound 1, N-((1S,3R)-3-(5-chloro-4-(1H-indol-3-yl)pyrimidin-2-ylamino)-1-methylcyclohexyl)-5-((E)-4-(dimethylamino)but-2-enamido)picolinamide], in experiment [1], the “MCL1 protein level (Western blot)” value is “downregulated”. In addition, the “mRNA of genes related to homologous recombination deficiency and carboplatin sensitivity, all genes except Rad51 (BRCA1, BRCA2, ATM, ATR, MSH2, MSH6)” value in experiment [2] is recorded as “downregulated”. The “Average Expression (TPM) GATA3” value in experiment [3] (DMSO 32.685) came to 22.404 TPM. Also, the “Average Expression (TPM) FOXC1” value in experiment [3] (DMSO 40.481) was determined as 25.768 TPM. Further, the “Average Expression (TPM) TGIF1” value in experiment [3] (DMSO 62.523) came out at 68.293 TPM.
